Test system: LoVo cell line
Assay: Tumor growth inhibition and survival (ILS) in mice implanted with LoVo cell line
Format: in vivo
Description: The LoVo cell line was selected for implantation in mice as it is a p53 wildtype cell line that lacks MDM2 amplification or overexpression and therefore is felt to be more reflective of clinical reality of the colorectal cancer patient population of interest.
The following treatment groups were used in the study
Efficacy data was graphically represented as the mean tumor volume±standard error of the mean (SEM). In addition, tumor volumes of treated groups were presented as percentages of tumor volumes of the control groups (% T/C), using the formula: 100×((T-T0)/(C-C0)), where T represented mean tumor volume of a treated group on a specific day during the experiment, T0 represented mean tumor volume of the same treated group on the first day of treatment; C represented mean tumor volume of a control group on the specific day during the experiment, and C0 represented mean tumor volume of the same treated group on the first day of treatment.
Tumor volume (in cubic millimeters) was calculated using the ellipsoid formula: (D×(d^2))/2, where “D” represents the large diameter of the tumor and “d” represents the small diameter. In some cases, tumor regression and/or percent change in tumor volume was calculated using the formula: ((T-T0)/T0)×100, where ‘T’ represents mean tumor volume of the treated group at a particular day, and ‘T0’ represents mean tumor volume of the same treated group at initiation of treatment.
Statistical analysis was determined by the rank sum test and One Way Anova and a post-hoc Bonferroni t-test (SigmaStat, version 2.0, Jandel Scientific, San Francisco, Calif., USA). Differences between groups were considered to be significant when the probability value (p) was ≦0.05.
For survival assessment, the percent of increased life space (ILS) was calculated as: 100×[(median survival day of treated group−median survival day of control group)/median survival day of control group]. Median survival was determined utilizing Kaplan Meier survival analysis. Survival in treated groups was statistically compared with the vehicle group and survival comparisons were done between groups using the log-rank test (Graph Pad Prism, La Jolla, Calif., USA). Differences between groups were considered significant when the probability value (p) was ≦0.05.

[1] = Capecitabine 200 mg/kg qd × 14 po
[2] = Capecitabine 400 mg/kg qd × 14 po

| SMILES | % Increased Life Span (ILS) (Cpd. A 80 mg/kg qd × 5 po) | Mean Tumor Volume (Cpd. A 80 mg/kg qd × 5 po) | % Inhibition (EOS) (TGI) (Cpd. A 80 mg/kg qd × 5 po) | % T/C (EOS) (Cpd. A 80 mg/kg qd × 5 po) | % Increased Life Span (ILS) (Cpd. A 100 mg/kg qweekly×3 po) | Mean Tumor Volume (Cpd. A 100 mg/kg qweekly×3 po) | % Inhibition (EOS) (TGI) (Cpd. A 100 mg/kg qweekly×3 po) | % T/C (EOS) (Cpd. A 100 mg/kg qweekly×3 po) | % Increased Life Span (ILS) [1] | Mean Tumor Volume [1] | % Inhibition (EOS) (TGI) [1] | % T/C (EOS) [1] | % Increased Life Span (ILS) [2] | Mean Tumor Volume [2] | % Inhibition (EOS) (TGI) [2] | % T/C (EOS) [2] |
| --- | --- | --- | --- | --- | --- | --- | --- | --- | --- | --- | --- | --- | --- | --- | --- | --- |
| COc1cc(C(=O)O)ccc1NC(=O)[C@@H]1N[C@@H](CC(C)(C)C)[C@](C#N)(c2ccc(Cl)cc2F)[C@H]1c1cccc(Cl)c1F [Compound A, 4-{[(2R,3S,4R,5S)-4-(4-Chloro-2-fluoro-phenyl)-3-(3-chloro-2-fluoro-phenyl)-4-cyano-5-(2,2-dimethyl-propyl)-pyrrolidine-2-carbonyl]-amino}-3-methoxy-benzoic acid] | 23% | 130.39 cubic millimeters | 62% | 38% | 17% | 130.11 cubic millimeters | 55% | 45% |  |  |  |  |  |  |  |  |
| CCCCCOC(=O)Nc1nc(=O)n([C@@H]2O[C@H](C)[C@@H](O)[C@H]2O)cc1F [Capecitabine, 5′-deoxy-5-fluoro-N-[(pentyloxy)-carbonyl]-cytidine] |  |  |  |  |  |  |  |  | 40% | 130.14 cubic millimeters | 72% | 28% | 49% | 130.66 cubic millimeters | 88% | 12% |
